The values below come from ChEMBL document CHEMBL4665769, “Artemyrianolides A-S, Cytotoxic Sesquiterpenoids from Artemisia myriantha” (J Nat Prod, 2020).

pIC50: −log10 of the molar value.

Format in all cases: functional, cell-based
For one experiment, the system named is SMMC-7721. Nature of the experiment: Cytotoxicity against human SMMC-7721 cells assessed as reduction in cell viability after 48 hrs by MTT assay. The settings on record: SMMC-7721, 48 h.
In a further experiment the test system is HepG2. Nature of the experiment: Cytotoxicity against human HepG2 cells assessed as reduction in cell viability after 48 hrs by MTT assay. The note with it: HepG2, 48 h.
Another experiment deals with Huh-7. Nature of the experiment: Cytotoxicity against human Huh-7 cells assessed as reduction in cell viability after 48 hrs by MTT assay. The note with it: Huh-7, 48 h. A general note: Tetrazolium assays rely on reduction of a dye to a coloured formazan, in cell work by metabolically active cells.

Usually pIC50 stands for −log10 of the IC50, conventionally taken in molar units. With `C=C1C(=O)O[C@@H]2C[C@H](C)[C@]3(/C=C/C(C)=O)O[C@@H]3C[C@H]12`, the pIC50 was < 5.00 with SMMC-7721, < 5.00 in the experiment on HepG2 and 5.09 with Huh-7.

`C=C1C(=O)O[C@@H]2C[C@]3(C)[C@@H](CCC(C)=O)[C@@H]3C[C@H]12`: the pIC50 in the experiment on SMMC-7721 is < 5.00; in the experiment with HepG2, < 5.13; with Huh-7 it was 5.11.

For the molecule `C=C1C(=O)O[C@@H]2C[C@@]3(C)C=CC(=O)C(C)=C3C[C@H]12`, the pIC50 in the experiment with SMMC-7721, in the experiment with HepG2 and in the experiment on Huh-7 was < 5.00 in each case.

With `C=C1C[C@@H](OC(C)=O)/C=C(\C)C[C@@H]2OC(=O)C(=C)[C@H]2C[C@H]1O`, the negative logarithm of the IC50 (pIC50) in the experiment on SMMC-7721, in the experiment on HepG2 and with Huh-7 was < 5.00 throughout.

In the case of `C=C1C(=O)O[C@@H]2CC(=C)[C@@H]3CC[C@@](C)(O)[C@@H]3C[C@H]12`, the pIC50 with SMMC-7721, in the experiment with HepG2 and with Huh-7 was < 5.00 each time.

As for `C=C1C[C@H]2OC(=O)C(=C)[C@H]2C[C@@H](O)C(=C)CCC1=O`, the negative logarithm of the IC50 (pIC50) in the experiment with SMMC-7721, in the experiment with HepG2 and in the experiment on Huh-7 was < 5.00 each time.

Take `C=C1C[C@@H]2OC(=O)C(=C)[C@H]2C[C@@H]2[C@@H]1[C@H](OC(C)=O)C[C@@]2(C)O`: the negative-log IC50 (pIC50) in the experiment on SMMC-7721, with HepG2 and in the experiment on Huh-7 was < 5.00 throughout.

Regarding `C=C1C(=O)O[C@H]2C/C(C)=C/[C@H](OC(C)=O)C[C@@]3(C)O[C@H]3C[C@H]12`, the pIC50 in the experiment on SMMC-7721, in the experiment on HepG2 and in the experiment on Huh-7 was < 5.00 each time.

Consider `C=C1C(=O)O[C@@H]2C[C@]3(C)[C@@H](C[C@H]12)[C@H](C)C(=O)[C@@H]1O[C@@H]13`, for which the pIC50 with SMMC-7721, in the experiment with HepG2 and with Huh-7 was < 5.00 each time.

Take `C=C1C(=O)O[C@@H]2C[C@]3(C)O[C@H](C[C@H]12)C(=C)CC[C@@H]3O`: the negative logarithm of the IC50 (pIC50) with SMMC-7721, with HepG2 and with Huh-7 was < 5.00 each time.

In the case of `C=C1C(=O)O[C@H]2C[C@@]3(C)[C@H](O)CCC(=C)[C@]3(O)C[C@H]12`, the negative logarithm of the IC50 (pIC50) in the experiment on SMMC-7721, in the experiment on HepG2 and in the experiment with Huh-7 was < 5.00 in each case.

For `C=C1C(=O)O[C@H]2C[C@@]3(C)[C@H](O)CCC(=C)[C@]3(OO)C[C@H]12`, the pIC50 in the experiment on SMMC-7721, in the experiment with HepG2 and in the experiment on Huh-7 was < 5.00 each time.

`C=C1C(=O)O[C@H]2C/C(C)=C/[C@H](OC(C)=O)CC(=C)[C@@H](O)C[C@H]12`: the negative logarithm of the IC50 (pIC50) in the experiment on SMMC-7721, in the experiment with HepG2 and with Huh-7 was < 5.00 each time.

As for `C=C1C[C@@H](OC(C)=O)/C=C(\C)C[C@@H]2OC(=O)C(=C)[C@H]2C[C@@H]1OO`, the negative logarithm of the IC50 (pIC50) in the experiment on SMMC-7721 was < 5.00; with HepG2, < 5.00; with Huh-7, 5.00.

Regarding `C=C1C[C@@H](OC(C)=O)/C=C(\C)C[C@@H]2OC(=O)C(=C)[C@H]2CC1=O`, the figures for the negative logarithm of the IC50 (pIC50) in the experiment on SMMC-7721, in the experiment with HepG2 and in the experiment with Huh-7 were 5.51, 5.31 and 5.37, respectively.

Regarding `C=C1C[C@@H](OC(C)=O)/C=C(\C)C[C@@H]2OC(=O)C(=C)[C@H]2C[C@@H]1OC(C)=O`, the negative logarithm of the IC50 (pIC50) in the experiment with SMMC-7721, with HepG2 and with Huh-7 was < 5.00 in each case.

Regarding `C=C1C(=O)O[C@H]2C/C(C)=C/[C@H](OC(C)=O)C[C@@]3(CO3)C(=O)C[C@H]12`, the figures for the pIC50 in the experiment on SMMC-7721, with HepG2 and in the experiment on Huh-7 were < 5.00, 5.07 and 5.06, respectively.

As for `CNC(=O)c1cc(Oc2ccc(NC(=O)Nc3ccc(Cl)c(C(F)(F)F)c3)cc2)ccn1` [SORAFENIB], the pIC50 with SMMC-7721 was < 5.00; in the experiment with HepG2 it was 5.10; with Huh-7 it was 5.00.

As to `C=C1C(=O)O[C@@H]2C[C@@]3(C)CCCC(=C)[C@]3(O)C[C@H]12` [TELEKIN], the negative-log IC50 (pIC50) in the experiment on SMMC-7721, in the experiment with HepG2 and in the experiment on Huh-7 was < 5.00 each time.
